Measured values taken from US8309598B2, “Cooling compounds” (Givaudan S.A., priority 2007, dated 2012).

Columns and labels:
Type in all cases: in vivo
[1] = Tasting of a dilute solution in de-ionized water against water as control
Experimental: A 0.1% w/w solution of 5-(4H-benzo[d][1,3]oxathiin-2-yl)-2-methoxyphenol was prepared in ethanol and diluted, with good mixing, into de-ionized water: thereby, generating a 1 ppm solution of 5-(4H-benzo[d][1,3]oxathiin-2-yl)-2-methoxyphenol in water. This solution was tasted using de-ionized water as the control.
A 20 ppm solution of 5-(4H-benzo[d][1,3]oxathiin-2-yl)-2,3-dimethoxyphenol (0.1% w/w in EtOH) was prepared in de-ionized water. The resulting solution was evaluated against de-ionized water as the control.
One gram of a 1000 ppm solution of 2-(4-methoxyphenyl)-4H-benzo[d][1,3]oxathiine in EtOH was added to 99 grams of water generating a 10 ppm taste solution. This solution was tasted relative to water.
One gram of a 1000 ppm solution of 4-(4H-benzo[d][1,3]oxathiin-2-yl)phenol in EtOH was added to 99 grams of water generating a 10 ppm taste solution. This solution was tasted relative to water.

[2] = Tasting in sugar/lemon flavor water against control without compound; conditions: 1 gram of 1000 ppm EtOH solution with 5 g sugar, 1 gram 1% lemon flavor, 93 grams water
Experimental: Five grams of sugar, 1 gram of a 1% solution of lemon flavor in EtOH and 1 gram of a 1000 ppm solution of 2-(4-methoxyphenyl)-4H-benzo[d][1,3]oxathiine in EtOH were added to 93 grams water. The resulting solution was tasted relative to a control made up of 5 g sugar, 1 gram lemon flavor and 94 g water.
Five grams of sugar, 1 gram of a 1% solution of lemon flavor in EtOH and 1 gram of a 1000 ppm solution of 4-(4H-benzo[d][1,3]oxathiin-2-yl)phenol in EtOH were added to 93 grams water. The resulting solution was tasted relative to a control made up of 5 g sugar, 1 gram lemon flavor and 94 g water.

[3] = Tasting in almond-flavored 2% milk against control without compound; conditions: 0.01 g of a 1% EtOH solution with 0.01 g natural almond flavor in 99.98 g of 2% milk
Experimental: Natural almond flavor 0.01 g and 0.01 g of a 1% solution of 4-(4H-benzo[d][1,3]oxathiin-2-yl)benzonitrile in EtOH were added to 99.98 g of 2% milk and the contents were mixed well. This solution was tasted relative to the control, which was made up of 0.01 g of natural almond flavor and 99.99 g of 2% milk.

[4] = Tasting in pistachio-flavored sweetened milk against control without compound; conditions: 0.8 ppm sample in pistachio-flavored sweetened milk
Experimental: A pistachio-flavored sweetened milk was prepared using 87.52% by weight of 2% reduced fat milk, 10% by weight of granulated fruit sugar, 1.4% w/w of FD&C Blue #1 (0.01% w/w in water), 0.8% w/w of FD&C yellow #5 (0.1% w/w in water). 0.2% w/w of natural pistachio flavor (Givaudan) and 0.08% of a 0.10% w/w solution of 5-(4H-benzo[d][1,3]oxathiin-2-yl)-2-methoxyphenol in ethanol generating a 0.8 ppm sample. The control was prepared the same by increasing the milk to 87.6% and leaving out 5-(4H-benzo[d][1,3]oxathiin-2-yl)-2-methoxyphenol.

[5] = Tasting in cantaloupe-flavored taffy against control without compound; conditions: 0.14% w/w of a 0.1% w/v EtOH solution in cantaloupe-flavored taffy with malic acid
Experimental: A desired quantity of taffy was chipped off using hammer and chisel and melted in the microwave for 5-30 seconds depending on batch size. Next, 1.2% w/w of a cantaloupe flavor (Givaudan) was added to 98.26% w/w sample of the taffy followed by 0.4% w/w of granular malic acid and 0.14% w/w of 5-(4H-benzo[d][1,3]oxathiin-2-yl)-2-methoxyphenol (0.1% w/v in EtOH). The control sample was produced the same by increasing the taffy base to make up for the absence of 5-(4H-benzo[d][1,3]oxathiin-2-yl)-2-methoxyphenol in the formula. In both the control and the experimental sample, the contents were well mixed by hand while wearing gloves. The taffy was shaped into individual portions and covered in an airtight container overnight.

[6] = Tasting in sweetened lime-flavored beverage against control without compound; conditions: 0.07% w/w of a 1.0% w/w EtOH solution in lime beverage (10% fruit sugar, citric acid)
Experimental: Granulated fruit sugar, 10% w/w, 0.25% w/W of citric acid, 0.24% w/w of FD&C yellow #5 (0.1% w/w in water), 0.24% of FD&C blue #1 (0.01% w/w in water), 0.1% w/w 15 fold lime oil (1.0% w/w in EtOH), 0.03% w/v of sodium citrate and 0.07% w/w of 5-(4H-benzo[d][1,3]oxathiin-2-yl)-2,3-dimethoxyphenol (1.0% w/w in EtOH) were added to 89.07% w/v of de-ionized water. The control was prepared by eliminating 5-(4H-benzo[d][1,3]oxathiin-2-yl)-2,3-dimethoxyphenol and increasing the water content to 89.14%.

[7] = Tasting in CoolMint Listerine against CoolMint Listerine as control; conditions: 0.08% w/w of a 1.0% w/w EtOH solution in 99.92% w/w CoolMint Listerine
Experimental: A 0.08% w/w sample of 5-(4H-benzo[d][1,3]oxathiin-2-yl)-2,3-dimethoxyphenol (1.0% w/w in EtOH) was added to 99.92% w/w CoolMint Listerine™ and the contents were mixed well. The resulting mixture was tasted using CoolMint Listerine™ as the control.

[8] = Tasting in banana-flavored thawed vanilla ice cream against control without compound; conditions: 0.02 g of a 1% EtOH solution with 0.02 g banana flavor in 99.96 g thawed vanilla ice cream
Experimental: Vanilla ice cream was thawed in the microwave for 20 seconds. Next, 0.02 g of N&A banana ice cream flavor and 0.02 g of a 1% solution of 5-(4H-benzo[d][1,3]oxathiin-2-yl)-2-ethoxyphenol in EtOH were added to 99.96 g of the thawed vanilla ice cream. The resulting mixture was mixed well with a spoon and tasted relative to the control, which was made up of 0.02 g of the N&A banana flavor in 99.98 g of the thawed vanilla ice cream.

[9] = 10 ppm taste solution in water, tasted relative to water

Compound: COc1ccc(C2OCc3ccccc3S2)cc1 (stereo not drawn) [2-(4-methoxyphenyl)-4H-benzo[d][1,3]oxathiine]
- Comments on flavor properties [1, 9]: cooling, slightly anisic, lingering cooling
- Comments on flavor modification [2]: cooling, anise, sweeter, bitter peel, more acidic, tingle, lingering flavor, better aroma and refreshing

Compound: N#Cc1ccc(C2OCc3ccccc3S2)cc1 (stereo not drawn) [Example 3, 4-(4H-benzo[d][1,3]oxathiin-2-yl)benzonitrile]
- Comments on flavor modification [3]: stronger flavor, more toasted note, earthy note, more authentic, cooling, bitter almond like, sweeter, more nutty and nut skin

Compound: COc1ccc(C2OCc3ccccc3S2)cc1O (stereo not drawn) [5-(4H-benzo[d][1,3]oxathiin-2-yl)-2-methoxyphenol]
- Comments on flavor properties relative to the control ([1]; 1 ppm solution in water, control de-ionized water): sweet, cooling and lingering
- Comments on flavor modification [4]: enhanced flavor impact, sweeter, cooling, enhanced creaminess, enhanced nutty character, sour aftertaste and brighter
- Comments on flavor modification [5]: sweeter, cooling, enhanced sourness, salivating, aroma enhancement and increased impact

Compound: COc1cc(C2OCc3ccccc3S2)cc(O)c1OC (stereo not drawn) [Example 2, 5-(4H-benzo[d][1,3]oxathiin-2-yl)-2,3-dimethoxyphenol]
- Comments on flavor properties ([1]; 20 ppm solution in de-ionized water, control de-ionized water): cooling, sweet, burns tongue, lingering sweetness, bitter and lingering cooling
- Comments on flavor modification [6]: sweet, cooling, astringent, juicy, mouth-watering and tart/bite
- Comments on flavor modification [7]: retronasal burn, cooling enhancement, intensifies flavor, increased eucalyptus, slow onset then strong burn, sweet and alcohol enhancement

Compound: CCOc1ccc(C2OCc3ccccc3S2)cc1O (stereo not drawn) [Example 1, 5-(4H-benzo[d][1,3]oxathiin-2-yl)-2-ethoxyphenol]
- Comments on flavor modification [8]: enhances flavor, makes the banana riper, increases creaminess, sweeter and cooling

Compound: Oc1ccc(C2OCc3ccccc3S2)cc1 (stereo not drawn) [Example 4, 4-(4H-benzo[d][1,3]oxathiin-2-yl)phenol]
- Comments on flavor properties [1, 9]: slightly sweet and slightly alliaceous
- Comments on flavor modification [2]: cooling, dirty, sweeter, lemon peel, nutty and bitter
